The values that follow come from patent US10918613B2, “Antioxidant compositions for treatment of inflammation or oxidative damage” (Perio Sciences, LLC, priority 2011, dated 2021).

Data set [1] relates to fibroblasts from human gingival (HGF) and human periodontal ligament (HPDF) cells. On the procedure:
A study was done to determine the antioxidant effect on fibroblasts from human gingival (HGF) and human periodontal ligament (HPDF) cells exposed to increasing concentration of cytotoxic metals. HGF and HPDF cells were extracted and seeded with 10% fetal bovine serum (FBS). Both the HGF and HPDF cells were then exposed to one of 3×10^−4M or 2×10^−4M ZnCl2, 2×10^−3M or 1×10^−3M NiCl2, 5×10^−4M or 4×10^−4M CuCl2. Next, the samples were treated with bioactive antioxidant (AO) mixtures at single, double, and triple combinations; resveratrol (R), ferulic acid (F), phloretin (P), and tetrahydrocurcuminoids (T). Both the HGF and HPDF cells were then monitored by MTS, ROS, and BrdU assays.

Data set [2] relates to Oral fibroblasts obtained from human gingival (HGF) tissues. Kind of data set: MTS cell viability assay of HGF cells pre-treated with Zn, Cu and Ni, then AO mixtures. On the procedure:
(§1) In dentistry, the use of metals in fillings, braces, bridges and other prosthodontic restorations may form free radicals. […] A study was conducted to determine if oral fibroblasts are susceptible to damage from these agents which elevate reaction oxygen species (ROS). In this study, specific antioxidant (AO) combinations were investigated that counteract the effects of Zn, Cu and Ni on cultured oral fibroblast proliferation and oxidative damage. Oral fibroblasts obtained from human gingival (HGF) tissues were seeded into 96-well plates. After achieving 70% confluence, the cells were pre-treated with Zn, Cu and Ni for 30 and 60 minutes. Thereafter, cells were exposed to 10^-5M of the bioactive AO mixtures; resveratrol (R), ferulic acid (F) phloretin (P) and tetrahydrocurcuminoids (T); (RFT, PFR, PFT) for 24 hours. Cell viability was monitored by MTS assay. The fluorescence response of dichlorodihydrofluorescein diacetate to various ROS was measured.
(§2) A study was conducted to determine if oral fibroblasts are susceptible to damage from these agents by decreasing cell viability and whether specific antioxidants (AO) in combinations can counteract these effects. Oral fibroblasts obtained from human gingival (HGF) tissues were seeded into 96-well plates. After achieving 70% confluence, the cells were pre-treated with Zn, Cu and Ni for 30 and 60 minutes. Thereafter, cells were exposed to 10^-5M of the bioactive AO mixtures at single, double and triple combinations; resveratrol (R), ferulic acid (F), phloretin (P), and tetrahydrocurcuminoids (T) for 24 hours. Cell viability was monitored by MTS assay.

Data set [3] has the same test system. On the procedure:
as §1, §2

For another data set, the system named is CCL5. Kind of data set: CCL5 production by LPS-stimulated PBMCs (multiplex). Format: cell-based, human. The note with it: 1×10^−4M anti-oxidant 2 hrs, then LPS 18 hrs. From the text: (§3) Cell Culture—PBMCs were isolated from buffy coats derived from healthy donors (Sylvan N. Goldman Oklahoma Blood Institute, Oklahoma City, Okla., USA) by density gradient centrifugation (Ficoll-Paque plus; GE Healthcare, Piscataway, N.J., USA). Oleuropein (purity=80.17%) was purchased from Sabinsa Corporation (Payson, Utah, USA). Silymarin (purity≥95%), ferulic acid (purity≥98%), hesperetin (purity≥95%), resveratrol (purity≥99%), and phloretin (purity≥99%) were purchased from Sigma-Aldrich (St Louis, Mo., USA). Dimethyl sulfoxide (DMSO) (purity=99.90%) was purchased from EMD Millipore (Billerica, Mass., USA). […]
(§4) PBMCs were seeded at either 4×10^5 or 1.2×10^6 cells in 96- or 48-well tissue culture plates (BD Biosciences, Franklin Lakes, N.J., USA) respectively. […] After 2 hrs the absorbance at 490 nm was recorded using a 96-well plate reader.
(§5) Human Cytokine Fluorokine MAP kit was purchased from R & D Systems (Minneapolis, Minn., USA). Readouts included TNF-α, IL-1α, IL-1β, IL-1Ra, IL-2, IL-4, IL-5, IL-6, IL-8, IL-10, IL-17, macrophage inflammatory protein (MIP)-1α (MIP-1α), MIP-1β, interferon-γ (IFN-γ), granulocyte-colony stimulating factor (G-CSF), granulocyte macrophage-colony stimulating factor (GM-CSF), macrophage chemotactic protein (MCP-1), CCL5, CXCL5, vascular endothelial growth factor (VEGF), thrombopoietin (TPO) and fibroblast growth factor basic (FGFb). […]

The test system of a further data set is TNF-α mRNA. The experiment in a line: RT-PCR of TNF-α mRNA in LPS-stimulated PBMCs. Format: cell-based, human. The note with it: harvested after 4 hrs, 2-ΔΔCt, GAPDH control. On the procedure: (§6) RT-PCR Assays—Total RNA was extracted from homogenized cells using the miRNeasy kit (Qiagen, Valencia, Calif., USA) according to the manufacturer's protocol. Total RNA quantified on Nanodrop (ThermoScientific, Rockford, Ill., USA) was used for first strand cDNA synthesis using the SS RTIII kit (Life Technologies, Carlsbad, Calif., USA). Real-time PCR was performed using EvaGreen 2× master mix (Biotium, Hayward, Calif., USA), 10 pmol forward and reverse gene specific primers and 1 ul of 1:10 diluted cDNA. GAPDH was used as endogenous control. The fold change was calculated using 2-ΔΔCt method and the control was set at 1. Custom primers were purchased from Sigma-Aldrich (St Louis, Mo., USA). Primer sequences for TNF-α were: Forward, […], Reverse: […]. Primer sequences for IκB-α were: Forward, […], Reverse: […]. Data Analysis—Statistics were performed using two-tailed t-test or one-way analysis of variance (ANOVA). Statistical significance is indicated by an asterisk *, where p≤0.05. Error bars on all graphs indicate standard error of mean (SEM) or standard deviation (SD).
(§7) Inhibition of TNF-α is present at the level of mRNA transcription—Whether the reduced production of inflammatory mediators was due to decreased mRNA transcription was investigated. […] After 4 hrs the cells were harvested, total RNA isolated and RT-PCR performed to measure the levels of TNF-α mRNA present. […]

A further data set relates to TNF-α. Kind of data set: TNF-α production by Aa Y4 LPS-stimulated PBMCs (ELISA). The class given is cell-based, human. The note with it: PBMCs pre-treated 2 hrs with 1×10^−4M anti-oxidant, then LPS 18 hrs. The text has this:
(§8) Cell Culture—PBMCs were isolated from buffy coats derived from healthy donors (Sylvan N. Goldman Oklahoma Blood Institute, Oklahoma City, Okla., USA) by density gradient centrifugation (Ficoll-Paque plus; GE Healthcare, Piscataway, N.J., USA). Oleuropein (purity=80.17%) was purchased from Sabinsa Corporation (Payson, Utah, USA). Silymarin (purity≥95%), ferulic acid (purity≥98%), hesperetin (purity≥95%), resveratrol (purity≥99%), and phloretin (purity≥99%) were purchased from Sigma-Aldrich (St Louis, Mo., USA). Dimethyl sulfoxide (DMSO) (purity=99.90%) was purchased from EMD Millipore (Billerica, Mass., USA). Oleuropein, silymarin, ferulic acid, hesperetin, resveratrol and phloretin were provided as 0.1M stock solutions prepared in DMSO by Periosciences Ltd (Dallas, Tex., USA).
PBMCs were seeded at either 4×10^5 or 1.2×10^6 cells in 96- or 48-well tissue culture plates (BD Biosciences, Franklin Lakes, N.J., USA) respectively. PBMCs were pre-treated with single antioxidants at a concentration of 1×10^−4 M or combinations of antioxidants with a combined concentration of 1×10^−4 M for 2 hrs prior to stimulation. […] S.C.) at a concentration of 1 μg/ml in the presence of antioxidants. Media were collected, spun at 1600 RPM and cell-free supernatants transferred to fresh tubes and stored at −20 C. Cell viability was assayed using CellTiter 96® AQueous One Solution Reagent (Promega, Madison, Wis., USA) following the manufacturers guidelines. 20 μl of the reagent was added to each well and incubated for 2 hrs under culture conditions. After 2 hrs the absorbance at 490 nm was recorded using a 96-well plate reader.
ELISA and Multiplex Assays—Human tumour necrosis factor-alpha (TNF-α) capture and detection Abs were purchased from Life Technologies (Carlsbad, Calif., USA) and used for the development of a TNF-α sandwich ELISA according to the manufacturer's instructions. Cell culture supernatants were analyzed using a 96-well plate reader with absorbance at 450 nm (reference 650 nm).
Stimulation of PBMCs with Aa Y4 LPS—To establish the optimal concentrations of anti-oxidants and LPS for this study, dose and kinetic experiments were performed. The doses examined were: 1×10^−4, 1×10^−5 and 1×10^−6M while the challenge concentrations of Aa Y4 LPS were 1, 10, 100 or 1000 ng/ml. Whole blood was stimulated with several concentrations of E. coli or Aa Y4 LPS and TNF-α production quantified by ELISA over 3 time-points: 16, 24 and 48 hrs.

The subject of another data set is IFN-γ. Kind of data set: IFN-γ production by LPS-stimulated PBMCs (multiplex). The class given is cell-based, human. The note with it: 1×10^−4M anti-oxidant 2 hrs, then LPS 18 hrs.
From the text: as §8
(§9) PBMCs were seeded at either 4×10^5 or 1.2×10^6 cells in 96- or 48-well tissue culture plates (BD Biosciences, Franklin Lakes, N.J., USA) respectively. PBMCs were pre-treated with single antioxidants at a concentration of 1×10^−4 M or combinations of antioxidants with a combined concentration of 1×10^−4 M for 2 hrs prior to stimulation. PBMCs were then stimulated for 16 hrs with purified LPS isolated from the bacterium Actinobacillus actinomycetemcomitans, strain Y4 (Aa Y4); a kind gift of Dr Kirkwood, Univ. S.C.) at a concentration of 1 μg/ml in the presence of antioxidants. Media were collected, spun at 1600 RPM and cell-free supernatants transferred to fresh tubes and stored at −20 C. […] After 2 hrs the absorbance at 490 nm was recorded using a 96-well plate reader.
as §5

A further data set deals with IL-1α. Kind of data set: IL-1α production by LPS-stimulated PBMCs (multiplex). Format: cell-based, human. The note with it: 1×10^−4M anti-oxidant 2 hrs, then LPS 18 hrs.
From the text: as §8, §9, §5

A further data set concerns IL-6. The experiment in a line: IL-6 production by LPS-stimulated PBMCs (multiplex). The class given is cell-based, human. The note with it: 1×10^−4M anti-oxidant 2 hrs, then LPS 18 hrs.
From the text: as §8, §9, §5

The subject of the next data set is G-CSF. Kind of data set: G-CSF production by LPS-stimulated PBMCs (multiplex). The note with it: 1×10^−4M anti-oxidant 2 hrs, then LPS 18 hrs. The class given is cell-based, human.
For another data set, the system named is IL-1β. The experiment in a line: IL-1β production by LPS-stimulated PBMCs (multiplex, FIG. 9D). The class given is cell-based, human. The note with it: 1×10^−4M anti-oxidant 2 hrs, then LPS 18 hrs.
From the text: as §3, §4, §5

The next data set concerns IL-1Ra. The experiment in a line: IL-1Ra production by LPS-stimulated PBMCs (multiplex). Format: cell-based, human. The note with it: 1×10^−4M anti-oxidant 2 hrs, then LPS 18 hrs.
From the text: as §3, §4, §5

A further data set concerns IL-10. Kind of data set: IL-10 production by LPS-stimulated PBMCs (multiplex). Format: cell-based, human. The note with it: 1×10^−4M anti-oxidant 2 hrs, then LPS 18 hrs.
From the text: as §3, §4, §5

A further data set relates to IκB-α mRNA. Kind of data set: RT-PCR of IκB-α mRNA in LPS-stimulated PBMCs (NF-κB activation). Format: cell-based, human. On the procedure:
as §6, §7

[4] abbreviates: HGF and HPDF, Example 4 metal concentrations.

Where two headings read alike, the source gives them in different places.

From the text for G-CSF: Cell Culture—PBMCs were isolated from buffy coats derived from healthy donors (Sylvan N. Goldman Oklahoma Blood Institute, Oklahoma City, Okla., USA) by density gradient centrifugation (Ficoll-Paque plus; GE Healthcare, Piscataway, N.J., USA). Oleuropein (purity=80.17%) was purchased from Sabinsa Corporation (Payson, Utah, USA). […] Dimethyl sulfoxide (DMSO) (purity=99.90%) was purchased from EMD Millipore (Billerica, Mass., USA). Oleuropein, silymarin, ferulic acid, hesperetin, resveratrol and phloretin were provided as 0.1M stock solutions prepared in DMSO by Periosciences Ltd (Dallas, Tex., USA).
PBMCs were seeded at either 4×10^5 or 1.2×10^6 cells in 96- or 48-well tissue culture plates (BD Biosciences, Franklin Lakes, N.J., USA) respectively. PBMCs were pre-treated with single antioxidants at a concentration of 1×10^−4 M or combinations of antioxidants with a combined concentration of 1×10^−4 M for 2 hrs prior to stimulation. PBMCs were then stimulated for 16 hrs with purified LPS isolated from the bacterium Actinobacillus actinomycetemcomitans, strain Y4 (Aa Y4); a kind gift of Dr Kirkwood, Univ. S.C.) at a concentration of 1 μg/ml in the presence of antioxidants. Media were collected, spun at 1600 RPM and cell-free supernatants transferred to fresh tubes and stored at −20 C. Cell viability was assayed using CellTiter 96® AQueous One Solution Reagent (Promega, Madison, Wis., USA) following the manufacturers guidelines. […] After 2 hrs the absorbance at 490 nm was recorded using a 96-well plate reader.

For `[Cl][Cu][Cl]` [Cu, CuCl2], the “effect of metal on ROS” value in data set [1] and in data set [3] was “increased ROS” in each case. Also, the “viable cells after incubation with metal (MTS)” value in [2] is listed as “dose-dependent decrease of viable cells”.
`[Cl][Ni][Cl]` [Ni, NiCl2]: the “effect of metal on ROS” value was “little effect on ROS” in data set [1] (setting [4]) and “increased ROS” in data set [3] (HGF cells). For the same compound, in data set [2] (HGF cells, 30 and 60 minutes), the “viable cells after incubation with metal (MTS)” value was “dose-dependent decrease of viable cells”.
For `[Cl-].[Cl-].[Zn+2]` [Zn, ZnCl2] the same measures were “little effect on ROS”, “increased ROS” and “dose-dependent decrease of viable cells”.
On to `COc1cc(/C=C/C(=O)O)ccc1O` [ferulic acid], for which, in the data set with CCL5, the “production of CCL5” value is “Apart from ferulic acid”. Besides, the “reduction of TNF-α mRNA expression levels” value with TNF-α mRNA was “not”. Also, the TNF-α production result in the data set with TNF-α was “no observed effect”.
Regarding `COc1ccc([C@@H]2CC(=O)c3c(O)cc(O)cc3O2)cc1O` [hesperetin], the “IFN-γ induced by LPS stimulation” value with IFN-γ was “abolished”. The “production of IL-1α” value in the data set on IL-1α is “inhibited the production”. The “production of IL-6” value in the data set on IL-6 is reported as “inhibited the production”. Also, the G-CSF production entry with G-CSF was “inhibited”. Also, the “levels of IL-1β” value with IL-1β is recorded as “decreased levels”. Also, the TNF-α production result in the data set with TNF-α is “Significant inhibition”.
Take `O=C(CCc1ccc(O)cc1)c1c(O)cc(O)cc1O` [phloretin]: the “IFN-γ induced by LPS stimulation” value with IFN-γ is given as “abolished”. In the data set with IL-1α, the “production of IL-1α” value is “inhibited the production”. In addition, in the data set on IL-1Ra, the “production of IL-1Ra” value is listed as “inhibited the production”. Besides, in the data set with IL-6, the “production of IL-6” value is on record as “inhibited the production”. Further, the G-CSF production entry with G-CSF is given as “inhibited”. The “production of IL-10” value with IL-10 is recorded as “inhibited the production”. The TNF-α production entry in the data set with TNF-α is “Significant inhibition”.
Turning to `Oc1ccc(C=Cc2cc(O)cc(O)c2)cc1` [resveratrol], in the data set on IFN-γ, the “IFN-γ induced by LPS stimulation” value is on record as “abolished”. In the data set on IL-1α, the “production of IL-1α” value is “inhibited the production”. Further, the “production of IL-1Ra” value with IL-1Ra is “inhibited the production”. For the same compound, the “reduction of IκB-α mRNA expression” value in the data set with IκB-α mRNA is listed as approximately 50%. In the data set on IL-6, the “production of IL-6” value is recorded as “inhibited the production”. The G-CSF production result in the data set with G-CSF is reported as “inhibited”. For the same compound, the “levels of IL-1β” value in the data set on IL-1β is “decreased levels”. In addition, in the data set with IL-10, the “production of IL-10” value is “inhibited the production”. In addition, the TNF-α production result with TNF-α was “Significant inhibition”.
